The target of one test is T1, δ receptors (Rattus norvegicus, UniProt P33533).
T1 construct: performed using rat brain homogenates as above; tissue Harlan Bioproducts for Science; host or cells: rat brain crude membrane homogenate
As to the kind of experiment: Radioreceptor assay selective for δ receptors ([3H]-naltrindole, rat brain homogenates). The format is binding. Particulars: ratio of δ IC50 to µ IC50. The method, then: Radioreceptor assays selective for δ receptors were performed using rat brain homogenates as above and [^3H]-naltrindole (0.5 nM, specific activity 34.7 Ci/mmol) as radioligand in Tris buffer containing 100 µM phenylmethylsulfonyl fluoride (PMSF), 5 mM MgCl2 and 1 mg/ml bovine serum albumin (BSA), pH 7.4. Samples were incubated for 2.5 hr. Standard curves were prepared using 0.10-3200 nM [^3H]-D-Pen2, Pen5]-enkephalin ([^3H]-DPDPE).

The target in a further test is T2, κ receptors (Cavia porcellus, UniProt P41144).
T2 construct: tissue homogenates prepared from guinea pig brains (cortex and cerebellum); tissue Harlan Bioproducts for Science; host or cells: guinea pig brain (cortex and cerebellum) homogenate
Put plainly: Radioreceptor assay selective for κ receptors ([3H]-U69,593, guinea pig brain homogenates). Type of test: binding. The note with it: ratio of κ IC50 to µ IC50. How it is done:
Assays selective for κ receptors were carried out using [^3H]-U69,593 (3 nM, specific activity 62 Ci/mmol) as the radioligand and tissue homogenates prepared from guinea pig brains (cortex and cerebellum) using Tris buffer containing 100 µM PMSF, 5 mM MgCl2 and 1 mg/ml BSA, pH 7.4. Sample tubes were incubated for 2.5 hr.

For a further test, the system named is MU RECEPTOR
As to the kind of experiment: Agonist or antagonist activity by either the adenylyl cyclase assay or the GPI assay (not stated which).

Non-standard residues stand in square brackets, D forms with d. No end group written: not given here.

T2 sequence (P41144 whole entry): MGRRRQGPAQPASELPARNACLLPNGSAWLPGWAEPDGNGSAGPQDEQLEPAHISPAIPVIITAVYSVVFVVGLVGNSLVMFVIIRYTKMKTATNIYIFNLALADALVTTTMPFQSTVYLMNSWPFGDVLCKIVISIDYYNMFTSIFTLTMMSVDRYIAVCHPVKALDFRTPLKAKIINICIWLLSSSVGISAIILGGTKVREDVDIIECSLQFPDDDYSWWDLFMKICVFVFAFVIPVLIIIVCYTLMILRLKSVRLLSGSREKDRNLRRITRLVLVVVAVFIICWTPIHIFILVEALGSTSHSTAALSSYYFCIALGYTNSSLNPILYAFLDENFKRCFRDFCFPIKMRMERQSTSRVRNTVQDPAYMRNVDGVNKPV
T1 sequence (P33533 whole entry): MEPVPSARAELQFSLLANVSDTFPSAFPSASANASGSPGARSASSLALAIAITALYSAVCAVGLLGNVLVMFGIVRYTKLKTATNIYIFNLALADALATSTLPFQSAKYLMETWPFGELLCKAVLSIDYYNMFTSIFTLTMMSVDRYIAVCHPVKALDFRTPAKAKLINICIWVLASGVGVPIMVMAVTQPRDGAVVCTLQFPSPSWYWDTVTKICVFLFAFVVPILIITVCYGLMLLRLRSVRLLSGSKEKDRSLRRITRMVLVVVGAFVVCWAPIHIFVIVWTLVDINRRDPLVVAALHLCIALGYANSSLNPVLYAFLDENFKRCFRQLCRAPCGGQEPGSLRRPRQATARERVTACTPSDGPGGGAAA
Experimental for MU RECEPTOR: An adenylyl cyclase assay using human SH-SY5Y neuroblastoma cell line membranes was used to rapidly determine the opioid agonists or antagonist properties of individual peptides. Opioid agonist inhibit adenylyl cyclase activity, resulting in reduced levels of cyclic AMP.
SH-SY5Y membranes were incubated in a final volume of 100 µl of 40 mM HEPES, pH 7.7, containing 15 units of creatine phosphokinase, 20 mM phosphocreatine, 1mM 1,10-o-phenanthroline, 60 µM isobutylmethylxanthine (IBMX), 50 µM ATP, 50 µM GTP, 3 mM MgCl2 and 100 mM NaCl. Each of the agonists and antagonists tested were included at final concentrations of 100 µM and 500 µM, respectively. The reaction was initiated by the addition of 36 µg of membrane protein. After 15 min at 30°C, the reaction was stopped by the addition of 100 µl of cold 4.5% perchloric acid. The samples were neutralized by the addition 40 µl of cold 30% potassium bicarbonate. Finally, the membranes were centrifuged at 12000 x g for 4 min at 4°C in a microcentrifuge. The amount of cyclic AMP present in 100 µl of-the supernatant, equivalent to the cyclic AMP produced by 15 µg of membrane protein, was determined using a cyclic AMP kit (Diagnostic Products, Los Angeles, CA). […] The final supernatants were counted in 10 ml of Ecolite (+) scintillation fluid (ICN Pharmaceuticals, Covina, CA).

Consider “[D-Ala^2,MePhe^4,Gly-ol^5]enkephalin [DAMGO]”, for which the δ/µ on δ receptors amounted to 253. Moreover, the κ/µ at κ receptors is reported as 844.
As to “[dI][dM][dT][dW]G[dP]-NH2 [SEQ ID NO. 130]”, the “AGONIST OR ANTAGONIST” value in the test with MU RECEPTOR is on record as “Agonist”.

(Values after patent EP0853484B1, “NOVEL MU OPIOID RECEPTOR LIGANDS: AGONISTS AND ANTAGONISTS” (priority 1995, dated 1996).)
